Holding throughout (type): in vivo
Experiment [1] has as its system Amaranthus retroflexus (AMARE). Put plainly: Post-emergence biological efficacy, glasshouse, 500 or 1000 g/ha, evaluated after 13 days (100=total damage to plant; 0=no damage to plant). The following applies: Amaranthus retroflexus, 312 h, rate 1,000 g/ha, read-out: Percentage damage caused to weed species, post-emergence, AMARE. In a few lines:
(§1)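 Weed seeds were sown in standard soil in pots and the plants treated post-emergence. Afterwards they were grown on in a controlled glasshouse at 24/16° C. day/night with 14 hours light and 65% humidity, and watered twice daily.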

Experiment [2] has as its system Echinochloa crusgaffi (ECHCG). The experiment is described as above. The note with it: Echinochloa, 312 h, rate 1,000 g/ha, read-out: Percentage damage caused to weed species, post-emergence, ECHCG. In a few lines:
as §1

For experiment [3], the system named is Solanum nigrum (SOLNI). The description is as above. The note with it: Solanum nigrum, 312 h, rate 1,000 g/ha, read-out: Percentage damage caused to weed species, post-emergence, SOLNI. In a few lines:
as §1

In experiment [4] the test system is Alopecurus myosuroides (ALOMY). The description is as above. The note with it: Alopecurus myosuroides, 312 h, rate 1,000 g/ha, read-out: Percentage damage caused to weed species, post-emergence, ALOMY. In a few lines:
as §1

Experiment [5] concerns Setaria faberi (SETFA). The experiment is described as above. The following applies: Setaria faberi, 312 h, rate 1,000 g/ha, read-out: Percentage damage caused to weed species, post-emergence, SETFA. In a few lines:
as §1

Experiment [6] has as its system Ipomoea hederaceae (IPOHE). The description is as above. The note with it: Ipomoea, 312 h, rate 1,000 g/ha, read-out: Percentage damage caused to weed species, post-emergence, IPOHE. In outline: as §1
The test system of experiment [7] is Amaranthus retroflexus (AMARE). Put plainly: Pre-emergence biological efficacy, glasshouse, 1000 g/ha, evaluated after 13 days (100=total damage to plant; 0=no damage to plant). The note with it: Amaranthus retroflexus, 312 h, rate 1,000 g/ha, read-out: Percentage damage caused to weed species, pre-emergence, AMARE. In a few lines:
(§2)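 Glasshouse conditions were controlled at 24/16° C. day/night with a 14-hour photoperiod and 65% humidity; pots contained standard soil into which seeds had been sown, and plants were watered twice daily.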

The test system of experiment [8] is Echinochloa crus-galli (ECHCG). The experiment is described as above. The note with it: Echinochloa crus-galli, 312 h, rate 1,000 g/ha, read-out: Percentage damage caused to weed species, pre-emergence, ECHCG. In outline: as §2
Experiment [9] concerns Solanum nigrum (SOLNI). The description is as above. The following applies: Solanum nigrum, 312 h, rate 1,000 g/ha, read-out: Percentage damage caused to weed species, pre-emergence, SOLNI. In outline:
as §2

Experiment [10] concerns Alopecurus myosuroides (ALOMY). The experiment is described as above. The following applies: Alopecurus myosuroides, 312 h, rate 1,000 g/ha, read-out: Percentage damage caused to weed species, pre-emergence, ALOMY. In a few lines:
as §2

Experiment [11] has as its system Setaria faberi (SETFA). The experiment is described as above. The following applies: Setaria faberi, 312 h, rate 1,000 g/ha, read-out: Percentage damage caused to weed species, pre-emergence, SETFA. In a few lines: as §2
Experiment [12] relates to Ipomoea hederaceae (IPOHE). The experiment is described as above. The following applies: Ipomoea, 312 h, rate 1,000 g/ha, read-out: Percentage damage caused to weed species, pre-emergence, IPOHE. In outline:
as §2

The structures appear in SMILES notation.

Take `CCCCOCC(C)OC(=O)c1nc(-c2ccc(Cl)c(OC)c2F)nc2[nH]cc(C)c12` (stereo not drawn) [Compound 1-84, 4-[(1-n-Butoxy)-prop-2-yloxycarbonyl]-2-(4-chloro-2-fluoro-3-methoxyphenyl)-5-methyl-7H-pyrrolo[2,3-d]pyrimidne]: the pest or weed control at 1000 g/ha in [1] is 60%; in experiment [2] it was 0%; with Solanum nigrum (SOLNI) [3], 70%; in experiment [4], 10%; with Setaria faberi (SETFA) [5] it was 10%; in [6], 40%. The pest or weed control at 1000 g/ha is 20% in experiment [7]; 10% in experiment [8]; 40% in the experiment on Solanum nigrum (SOLNI) [9]; 10% in experiment [10]; 10% in the experiment on Setaria faberi (SETFA) [11]; 70% in experiment [12].

On to `COc1c(Cl)ccc(-c2nc(C(=O)O)c3cc(C)n(Cc4ccccc4)c3n2)c1F` [Compound 6-65, 4-Carboxy-2-(4-chloro-2-fluoro-3-methoxyphenyl)-6-methyl-7-phenylmethyl-7H-pyrrolo[2,3-d]pyrimidine], for which the pest or weed control at 1000 g/ha stood at 20% in [1]; 0% in experiment [2]; 80% with Solanum nigrum (SOLNI) [3]; 0% in experiment [4]; 0% in the experiment on Setaria faberi (SETFA) [5]; 40% in [6]. Further, the pest or weed control at 1000 g/ha (in experiment [7]; in experiment [8]; with Solanum nigrum (SOLNI) [9]; in [10]; in the experiment with Setaria faberi (SETFA) [11]; in experiment [12]) was 0% each time.

With `COc1c(Cl)ccc(-c2nc(C(=O)O)c3c(C)cn(Cc4ccccc4)c3n2)c1F` [Compound 6-63, 7-Benzyl-4-carboxy-2-(4-chloro-2-fluoro-3-methoxyphenyl)-5-methyl-7H-pyrrolo[2,3-d]pyrimidine], the pest or weed control at 1000 g/ha stood at 80% in [1]; 40% in experiment [2]; 70% in the experiment on Solanum nigrum (SOLNI) [3]; 10% in experiment [4]; 50% in the experiment on Setaria faberi (SETFA) [5]; 60% in [6]. In addition, the pest or weed control at 1000 g/ha (in [7]; in experiment [8]; in the experiment on Solanum nigrum (SOLNI) [9]; in experiment [10]; in the experiment with Setaria faberi (SETFA) [11]; in experiment [12]) was 0% throughout.

With `COc1c(Cl)ccc(-c2nc(C(=O)O)c3cc(C)[nH]c3n2)c1F` [Compound 1-65], the pest or weed control at 1000 g/ha in experiment [1] was found to be 40%; in experiment [2], 40%; in the experiment on Solanum nigrum (SOLNI) [3] it was 60%; in experiment [4], 0%; with Setaria faberi (SETFA) [5] it was 10%; in experiment [6] it was 60%. The pest or weed control at 1000 g/ha (in [7]; in experiment [8]; in the experiment with Solanum nigrum (SOLNI) [9]; in experiment [10]; in the experiment on Setaria faberi (SETFA) [11]; in [12]) was 0% in each case.

As for `COc1c(Cl)ccc(-c2cc3[nH]cc(C)c3c(C(=O)OC(C)C)n2)c1F` [Compound 22-78, 6-(4-Chloro-2-fluoro-3-methoxyphenyl)-4-isopropoxycarbonyl-3-methyl-1H-pyrrolo[3,2-c]pyridne], the pest or weed control at 1000 g/ha turned out to be 0% in experiment [1]; 0% in experiment [2]; 60% in the experiment with Solanum nigrum (SOLNI) [3]; 0% in experiment [4]; 0% with Setaria faberi (SETFA) [5]; 70% in experiment [6]. Besides, the pest or weed control at 1000 g/ha in [7] was 20%; in experiment [8], 0%; with Solanum nigrum (SOLNI) [9] it was 10%; in experiment [10], 0%; in the experiment on Setaria faberi (SETFA) [11], 0%; in [12] it was 0%.

Consider `COCCOCCOC(=O)c1nc(-c2ccc(Cl)c(OC)c2F)nc2[nH]cc(C)c12` [Compound 1-85, 2-(4-Chloro-2-fluoro-3-methoxyphenyl)-4-{2-[(2-methoxy)-ethoxy]-ethoxycarbonyl}-5-methyl-7H-pyrrolo[2,3-d]pyrimidine], for which the pest or weed control at 1000 g/ha is 100% in [1]; 60% in experiment [2]; 90% in the experiment with Solanum nigrum (SOLNI) [3]; 10% in [4]; 40% with Setaria faberi (SETFA) [5]; 40% in experiment [6]. Besides, the pest or weed control at 1000 g/ha in experiment [7] stood at 100%; in [8] it was 0%; with Solanum nigrum (SOLNI) [9] it was 70%; in [10], 20%; in the experiment on Setaria faberi (SETFA) [11], 0%; in [12], 10%.

Take `COC(=O)c1nc(-c2ccc(Cl)c(OC)c2F)nc2[nH]c(-c3ccccc3)c(C)c12` [Compound 1-108, 2-(4-Chloro-2-fluoro-3-methoxyphenyl)-4-methoxycarbonyl-5-methyl-6-phenyl-7H-pyrrolo[2,3-d]pyrimidine]: the pest or weed control at 1000 g/ha turned out to be 0% in [1]; 0% in [2]; 30% in the experiment on Solanum nigrum (SOLNI) [3]; 0% in [4]; 0% in the experiment on Setaria faberi (SETFA) [5]; 50% in experiment [6]. Besides, the pest or weed control at 1000 g/ha (in experiment [7]; in experiment [8]; in the experiment on Solanum nigrum (SOLNI) [9]; in experiment [10]; in the experiment with Setaria faberi (SETFA) [11]; in experiment [12]) was 0% throughout.

For the compound `COC(=O)c1nc(-c2ccc(Cl)c(N(C)C)c2F)nc2[nH]c(C)cc12` [Compound 1-118, 2-(4-chloro-3-dimethylamino-2-fluorophenyl)-4-methoxycarbonyl-6-methyl-7H-pyrrolo[2,3-d]pyrimidine], the pest or weed control at 1000 g/ha in experiment [1] turned out to be 100%; in experiment [2], 50%; with Solanum nigrum (SOLNI) [3], 80%; in experiment [4] it was 10%; in the experiment on Setaria faberi (SETFA) [5], 70%; in experiment [6], 50%. The pest or weed control at 1000 g/ha in [7] turned out to be 40%; in experiment [8] it was 10%; in the experiment on Solanum nigrum (SOLNI) [9], 70%; in experiment [10], 0%; in the experiment with Setaria faberi (SETFA) [11], 20%; in experiment [12], 40%.
